Assay results: a melting point compilation (Tetko et al.; mined from patent text by program, amines drawn as free bases though some values may be those of a salt)

Compound | melting point
CC(=O)NC[C@H]1CN(c2ccc(N3CCC(O)(CN=[N+]=[N-])CC3)cc2)C(=O)O1 | 134 to 136 °C
COC(=O)C=Cc1ccc(C=O)cc1 | 82 to 84 °C
C=CC1=CC=C(OC)C(OC)([N+](=O)[O-])C1 (stereo not drawn) | 140 to 141 °C
CCOC(=O)C(NC(=O)N1CCc2cc(S(=O)(=O)N3CCN(c4cccc(Cl)c4)CC3)ccc21)C(C)C (stereo not drawn) | 143 to 144 °C
CC(=O)c1cccc2c1C1(COc3cc4c(cc31)OCCO4)C(=O)N2C (stereo not drawn) | 234 to 235 °C
Cc1cc(Br)cc(C#N)c1 | 85 to 86 °C
CC(C)CN1C(=O)CN=C(N2CCN(C)CC2)c2ccccc21 | 134 to 136 °C
CO/N=C(\C(=O)OC)c1nsc(NC(=O)OC)n1 | 158 to 161 °C
O=C1CCC(CCC(=O)OCc2cccc(Cl)c2)N1 (stereo not drawn) | 90 to 91 °C
NC(=O)c1c(Cl)c(-c2ccccc2)n2c1CN(C(=O)CCC1CCCC1)CC2 | 172 to 174 °C
CC(C)NC(=O)N1N=C(c2ccc(N)cc2)c2cc(Cl)ccc2CC1C (stereo not drawn) | 100 to 102 °C
NC(=O)N(O)CC=Cc1cccc(F)c1Sc1ccc(Cl)cc1 | 125 to 127 °C
CCCCCC(C)C(C)c1cc(O)c2c(c1)OC(C)(C)c1ccncc1-2 (stereo not drawn) | 155 to 157 °C
COCC(=O)N(CC(C)=NOC)c1c(C)cccc1C | 56 to 57 °C
Clc1ncnc2c1ncn2C1CCCCO1 (stereo not drawn) | 70 to 71 °C
CSc1sc(C(=O)N2CCCC2)c2c1-c1oncc1C(C)(C)C2 | 114 to 116 °C
Cc1cc2ncc(Cl)nc2cc1C | 103 °C
CCCCCCC(CCC(=O)OC)n1cnc(NC(=O)c2ccccc2C(=O)O)c1 (stereo not drawn) | 135 to 136 °C
COc1ccc(O)c(Cl)c1O | 69 to 70 °C
CCc1ccccc1C=CC=C1SC(=S)N(CC(=O)O)C1=O | 161 to 183 °C
COCCNC(NC(=O)c1cccnc1)C(Cl)(Cl)Cl (stereo not drawn) | 75 to 77 °C
COc1cc2c(cc1OC)C(C(S)(C#N)CC(=O)O)=NCC2 (stereo not drawn) | 173 to 175 °C

Compound | melting point
Cc1ccc(C23CCN(C)CC2O3)cc1 (stereo not drawn) | 46 to 50 °C
CCCCCCCCCCCC(=O)c1c[nH]c2cc(C(=O)OC)ccc12 | 167 to 169 °C
CC(=O)NC[C@H]1CN(c2ccc(N3CC(O[Si](C)(C)C(C)(C)C)C3)c(F)c2)C(=O)O1 | 184 °C
Cn1ccc(=O)c2ccc(F)cc21 | 146 to 149 °C
COc1ccc(C2C(C(=O)O)C2(C)C)cc1 (stereo not drawn) | 115 °C
CCCCC1=C(Cl)C(=O)c2ccccc2C1=O | 69 to 70 °C
COC(=O)C1CC(C(=O)OC)NC(=O)N1 (stereo not drawn) | 178 to 179 °C
CCNC(=O)Nc1nc2cc(-c3cccnc3)cc(C(=O)NC)n2n1 | > 300 °C
COC(=O)CCn1c(=O)n2n(c1=O)C(C(=O)OC)C=CC2C(=O)OC (stereo not drawn) | 139 to 141 °C
N#CN=C(Oc1ccccc1)N1CCCCC1 | 85.7 °C
Cc1ccc([N+](=O)[O-])cc1Nc1ncc(-c2cccnc2)o1 | 252 °C
Cc1cc(C#N)cc(C)c1Nc1nc(Nc2ccc(C#N)cc2)nc(Cl)c1Br | 259 to 260 °C
CN(C(=O)CCN)c1nnc(-c2cccnc2)s1 | 110 to 112 °C
O=C(CNc1c(C(=O)O)[nH]c2cc(Cl)cc(Cl)c12)c1cccc(F)c1 | 270 to 280 °C
CC(=O)OCc1ccc2oc(=O)c(C(=O)Oc3cc([N+](=O)[O-])ccc3[N+](=O)[O-])cc2c1 | 162 to 164 °C
COC(=O)C1CC2c3cccc4[nH]cc(c34)CC2N(C(C)C)C1 (stereo not drawn) | 193 to 195 °C
Nc1nc(C(=O)O)c(-c2ccncc2)s1 | 211 °C
CC(=O)OC1CSC(Oc2ccc(-c3cncc(Cl)c3)nc2)C(OC(C)=O)C1OC(C)=O (stereo not drawn) | 203 to 205 °C
O=c1[nH]cnc2c1sc(=O)n2C1OC(CO)C(O)C1O (stereo not drawn) | 216 to 218 °C
COc1nc(C)c2c(c1C#N)CCCC2=O | 128 °C
Cn1ccnc1S[Si](C)(C)C | 49 to 52 °C
COc1cc(Nc2c(C#N)cnc3cc(-c4ccc(CNCCS(C)(=O)=O)o4)ccc23)c(Cl)cc1Cl | 171 to 174 °C

Compound | melting point
CCOC(=O)Cn1c(=O)c(=O)[nH]c2cc(C(F)(F)F)c(-n3ccc(C=O)c3)cc21 | 236 to 237 °C
COc1nc(C)nc(OC)c1C=S | 136 °C
O=[N+]([O-])c1cn2c(n1)OC[C@@H](OCC#Cc1ccc(Br)cc1)C2 | 160 to 162 °C
COc1ccc(/C=C/S(=O)(=O)Nc2ccc(S(N)(=O)=O)cc2)cc1 | 181 to 183 °C
COC[C@@H](NC(C)=O)C(=O)NCc1ccc(N=[N+]=[N-])cc1 | 149 to 150 °C
O=C1COc2cc(OCc3c(F)cccc3F)ccc21 | 134 to 138 °C
Cc1cccc(CC(=O)Nc2cc(Cl)c(Cl)cc2[N+](=O)[O-])c1 | 122 to 124 °C
NC(=O)OCC(O)COc1cc(-c2cccc(Cl)c2)on1 (stereo not drawn) | 149 to 150 °C
Cc1cnc(CCCCNc2ncc(Cc3ccc(CO)nc3)c(=O)[nH]2)c(Br)c1 | 150 to 152 °C
COc1ccc2c(c1)C(n1cc[nH]c1=S)CCC2 (stereo not drawn) | 142 to 143 °C
COC(=O)CCc1ccc(OCC(C)NCC(O)c2cccc(Cl)c2)cc1 (stereo not drawn) | 65 to 73 °C
CS(=O)(=O)OCC1(c2ccccc2)CCCC1 | 55 to 60 °C
Cc1cc2c(cc1Cl)C(c1ccccc1)(N1CCOCC1)ON2C(C)(C)C (stereo not drawn) | 131 to 133 °C
Oc1cccc2c(Cl)ccnc12 | 143 to 145 °C
CC(=O)CCN1C(=O)c2ccccc2S1(=O)=O | 118 to 119 °C
CC1(C)C=C(C#N)c2cc3nonc3cc2O1 | 136 to 138 °C
Cc1cc(C)c2nc(CCCCl)n(-c3ccc(C(C(=O)O)C4CCCC4)cc3)c2n1 (stereo not drawn) | 214 °C
O=C(O)C1CNc2cc(C(F)(F)F)ccc2O1 (stereo not drawn) | 105 to 107 °C
Cc1ccc2nc(S)oc2c1 | 209 °C
O=C(Nc1cccc(-c2ccnc3c(C(=O)c4cccs4)cnn23)c1)OCC(Cl)(Cl)Cl | 197 to 200 °C

Next, values leading:

melting point | Compound
187 to 188 °C | CCCOc1ccccc1-c1nc(NCC)cc(=O)[nH]1
168 to 172 °C | O=C(C=C(S)c1ccccc1)Nc1nc2ccccc2s1
134 to 136 °C | CCO[C@H]1CCN(C(=O)c2cc(-c3ccccc3)c(=O)n3c2-c2cc(Cl)ccc2CC3)C1
199 to 206 °C | Cc1[nH]c2cccnc2c1-c1ccc(F)cc1
210 to 212 °C | CSc1c(CC(=O)O)ccc2c1[nH]c1ccccc12
180 to 183 °C | Cc1cc2cc(CN3CCCC3)cnc2cc1NC(=O)c1ccc(-c2ccccc2)cc1F
102 to 104 °C | Cc1cc(C)c2c(n1)-c1ccccc1C2=O
220 to 221 °C | CSc1nnc2c3ccccc3c(-c3ccccc3)nn12
304 to 306 °C | O=C1CCC(N2Cc3c(CNC(=O)NCc4ccccc4)cccc3C2=O)C(=O)N1 (stereo not drawn)
169 to 177 °C | CCC(C)c1ccccc1N1C(=O)CS/C1=N\C(=O)Nc1ccc(-c2ncn(-c3ccc(OC(F)(F)F)cc3)n2)cc1 (stereo not drawn)
124 to 126 °C | O=C1N(Cc2ccc(-c3ccccc3C(F)(F)F)o2)c2ccccc2C12COc1cc3c(cc12)OCO3 (stereo not drawn)
67 to 68 °C | Cc1nc(N)nc(N)c1CCC(C)c1cccc(-c2ccc(C(F)(F)F)cc2)c1 (stereo not drawn)
135 °C | CSc1ccc(CN(C)CCCCc2ccc(NC(=O)c3cccc4c(=O)c5ccccc5[nH]c34)cc2)cc1
103 °C | O=C1CN(c2ccccc2)C(=S)N1Cc1ccccc1
80 to 81 °C | O=C(N(Cc1cccnc1)c1ccc(Cl)cc1)C(F)(F)F
140 to 142 °C | CN1c2ccccc2C(c2ccccc2F)=Nc2cccnc21
230 °C | CCCC1=C(C#N)C(c2ccccc2C)c2c[nH]nc2N1 (stereo not drawn)
276 to 277 °C | O=C(O)c1ccccc1S(=O)(=O)c1cc(Cl)ccc1C(=O)O
235 to 238 °C | CC(=O)NCCc1ccc(NC(=O)C=C2CC(C(=O)OCc3ccccc3)Nc3cc(Cl)cc(Cl)c32)cc1 (racemic)
200 to 201 °C | C=C1CS(=O)C2C(NC(=O)COc3ccccc3)C(=O)N2C1C(=O)OCc1ccc([N+](=O)[O-])cc1 (stereo not drawn)

melting point | Compound
239 to 240 °C | COc1ccc(Cn2c(N)cc(=O)[nH]c2=S)cc1OCc1ccccc1
103 to 104 °C | CCOC(=O)c1cn(Cc2ccc(OCc3ccccc3)cc2)nc1-c1ccc(F)cc1
237 to 239 °C | CC(=O)c1c(-c2ccncc2)[nH]c(-c2ccnc3ccccc23)c1C
150 °C | CCc1cccc(NC(=O)c2ccn3c2CSC3c2cccnc2)n1 (stereo not drawn)
134 to 135 °C | CSc1nc(NCc2ccc(-c3ccccc3)cc2)n2ncc(C(C)C)c2n1
177 to 179 °C | Oc1nc2cccnc2n1Cc1ccccc1
187 to 188 °C | CNS(=O)(=O)c1ccccc1Nc1nc(Nc2ccc3c(c2)COC[C@@H]2CCCN32)ncc1Cl
153 to 155 °C | O=C1CCC(N2Cc3c(OCc4ccc(CN5Cc6ccccc6C5)cc4)cccc3C2=O)C(=O)N1 (stereo not drawn)
186 to 188 °C | Cc1noc(C)c1-c1nn(Cc2ccccc2)c(=O)c2ccccc12
178 °C | CS(=O)(=O)C(=C1CN(C(c2ccccc2)c2ccccc2)C1)c1cccc(C(F)(F)F)c1
251 to 252 °C | ON=C1CCn2c(-c3ccccc3)nc3c(Cl)ccc1c32
125 to 126 °C | CCOc1nn(Cc2ccc(OCc3nc(-c4ccccc4)oc3C)cc2)cc1CC(=O)O
154 to 155 °C | CC[Si](CC)(c1ccc(N(c2ccccc2)c2ccccc2)cc1)c1ccc(N(c2ccccc2)c2ccccc2)cc1
185 °C | COc1ccc(C(=O)Nc2nc3ccc(N(C)C)cc3c(NCc3ccccc3)c2C#N)cc1
168 to 170 °C | CC(C)N(Cc1c(-c2ccccc2)sc(N2C(=O)c3ccccc3C2=O)c1C(=O)c1ccc(Cl)cc1)C(C)C
154 °C | FC(F)(F)c1cn2c(c1-c1ccccc1)CCC2
168 °C | O=c1oc(=O)n(Cc2ccccc2)c2ncccc12
96 to 98 °C | O=C(O)c1cccc(COc2ccccc2Cl)c1OCc1ccccc1Cl
68 to 69 °C | C=CCOc1ccc(-c2ccc(C#N)cc2)cc1
